Reference: patent US11384113B2, “Cobalamin derivatives and their use for the treatment of diseases caused by lack of vitamin B12 supply” (Albert-Ludwigs-Universitaet Freiburg, priority 2017, dated 2022)
Where a chain is given by its changes, count along the chain named.

Columns and labels:
[1] = target: T1, human recombinant CblC pathogenic mutant Arg161Gly (Homo sapiens, UniProt Q9Y4U1, R161G); format: biochemical
T1 sequence (Q9Y4U1 1-282 R161G): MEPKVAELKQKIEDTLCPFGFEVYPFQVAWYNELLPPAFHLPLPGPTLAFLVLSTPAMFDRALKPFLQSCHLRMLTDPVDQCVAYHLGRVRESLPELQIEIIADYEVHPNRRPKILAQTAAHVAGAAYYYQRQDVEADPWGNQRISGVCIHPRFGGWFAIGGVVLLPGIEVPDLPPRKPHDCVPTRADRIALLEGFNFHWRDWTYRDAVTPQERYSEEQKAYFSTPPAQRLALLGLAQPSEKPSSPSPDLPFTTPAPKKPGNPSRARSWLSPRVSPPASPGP

[2] = UV-visible spectrum of purified cobalamin in water (base-off configuration without CblC); format: physicochemical; details: after acetone precipitation and vacuum filtration
[3] = target: T2, human recombinant CblC wild type (Homo sapiens, UniProt Q9Y4U1); format: biochemical; details: dethiolation; 50 μM GSH
T2 sequence (Q9Y4U1 1-282): T1 sequence (Q9Y4U1 1-282 R161G) with G161R

[4] = tested on: fibroblasts isolated from patients with cblC disease; experiment: MMA in conditioned medium of cblC patient fibroblasts; format: cell-based, human
Excerpt: (§1) Cultured cells from control (healthy neonatal subjects) or cblC fibroblasts were supplemented without exogenous Cbl (negative control), with commercial CNCbl (current therapy control) or with the newly synthesized cobalamins (test group). The ability of these compounds to support intracellular Cbl metabolism in the absence of CblC was examined by monitoring disease biomarker metabolites Hcy and MMA levels in the conditioned medium.
(§2) The cellular response to treatment with new derivatives CyaCbl and MPGCbl in comparison with current therapeutic form CNCbl was measured. The ability of the new cobalamin derivatives CyaCbl and MPGCbl to achieve metabolic control, i.e. reduction of for example MMA production by cblC fibroblasts in culture, was examined as described in previously published experimental protocols. FIG. 13 provides a comparison of the effect of CNCbl (0.001 mM) versus the same dose of CyaCbl or MPGCbl given to cultured fibroblasts from healthy subjects (HFF, NHDF, PCS, Wiesel, Control) or from cblC patients (WG1801, WG2176, WG3354, GM10011, GM02345B, GM02452C).
(§3) Additional examination of the effect of thiolatocobalamins CyaCbl and MPGCbl and sulfur-containing alkylcobalamin Me-S-MeCbl with respect to structural analogues that are NOT available for therapy was also carried out, for comparative purposes. The results of cellular response (healthy controls and cblC patient fibroblasts) to cobalamin treatment, as reflected by MMA levels is provided in Table 6.

[5] = Concentration-dependent reaction rate of aquacobalamin with thiol ligand forming thiolatocobalamin (time-resolved UV-visible spectroscopy); format: physicochemical; details: pH 7.2, l = 1, sodium triflate
Description: The UV-visible spectra of newly synthesized cobalamin derivatives was determined in EPPS buffer (40 mM, pH 7.6, l=1.0 M with sodium triflate). The reaction of aquacobalamin with cysteamine and mercaptopropionylglycine was monitored by time-resolved spectral scanning of reactions containing a fixed amount of aquacobalamin (10-25 μM (micromolar)) and various concentrations of the ligand.
Mercaptopropionylglycine reacted readily with aquacobalamin to form a stable MPGCbl complex at pH 7.2.
A fixed concentration of aquacobalamin was reacted with varying concentrations of the ligand MPG. The reaction was monitored by time-resolved UV-visible spectroscopy for a total of 50 minutes (FIG. 5). The spectral changes were consistent with the conversion of aquacobalamin into MPGCbl (FIG. 5 a) via a mechanism that involves no detectable reaction intermediates. Initial and final spectra are analyzed to confirm the identity of the thiolatocobalamin product (FIG. 5 b). Time courses were generated at the absorption maxima of each species (350 nm, H2OCbl^+, and 372 nm, MPGCbl) (FIG. 5 c).

human wild type CblC = target: T3, human wild type CblC (Homo sapiens, UniProt Q9Y4U1); experiment: Binding to CblC and conversion to base-off configuration (UV-visible spectrophotometry); details: pH 7.6, EPPS buffer 0.04 M
T3 sequence (Q9Y4U1 1-282): T1 sequence (Q9Y4U1 1-282 R161G) with G161R
Description: An important aspect for the bioactivity of the new compounds is their ability to bind to the processing enzyme CblC, and to undergo conversion to the base-off configuration, which enhances their reactivity. This is a critical step in all intracellular pathways of vitamin B12 metabolism that are involved in pathogenesis, and certainly, relevant to the cblC disease itself. […] Binding studies were conducted at pH 7.6 (EPPS buffer, 0.04 M) and analyzed by UV-visible spectrophotometry.

[6] = target: T2, human recombinant CblC wild type; format: biochemical
cultured fibroblasts = experiment: Cytotoxicity and cellular transport observed in cultured fibroblast experiments; format: cell-based, human
[7] = tested on: fibroblasts from healthy subjects; experiment: MMA in conditioned medium of control fibroblasts; format: cell-based, human
Excerpt: as §1, §2, §3

Structure (SMILES): CC([S][Co+2])C(=O)NCC(=O)O.CC1=C2N=C(C=C3N=C(C(C)=C4[N-]C(C(CC(N)=O)C4(C)CCC(=O)NCC(C)OP(=O)([O-])OC4C(CO)OC(n5cnc6cc(C)c(C)cc65)C4O)C4(C)N=C1C(CCC(N)=O)C4(C)CC(N)=O)C(CCC(N)=O)C3(C)C)C(CCC(N)=O)C2(C)CC(N)=O (stereo not drawn) [MPGCbl]
- Product under ambient conditions, Mutant Arg161Gly ([1]; dethiolation, 50 μM GSH): H2OCbl
- Half-life of beta-axial ligand removal, Mutant Arg161Gly ([1]; human, pH 7.6): 1.5 min
- Configuration in the absence of the CblC protein [2]: at least a fraction of this Cbl derivative may exist in its base-off configuration
- Product under ambient conditions, Wild type CblC [3]: H2OCbl
- Reduction of MMA to the levels of healthy fibroblasts, compared with CNCbl ([4]; 0.001 mM, same dose as CNCbl, FIG. 13): far superior compared to CNCbl
- MMA in conditioned medium ([4]; GM02345B cblC fibroblasts, after 7 days): 0.182 μmol/mg protein
- MMA in conditioned medium ([4]; GM02452C cblC fibroblasts, after 7 days): 0.190 μmol/mg protein
- MMA in conditioned medium ([4]; GM10011 cblC fibroblasts, after 7 days): 0.087 μmol/mg protein
- MMA in conditioned medium ([4]; WG1801 cblC fibroblasts, after 7 days): 0.212 μmol/mg protein
- MMA in conditioned medium ([4]; WG2176 cblC fibroblasts, after 7 days): 0.216 μmol/mg protein
- MMA in conditioned medium ([4]; WG3354 cblC fibroblasts, after 7 days): 0.183 μmol/mg protein
- MMA in conditioned medium ([4]; cblC patients (group value), after 7 days): 0.178 μmol/mg protein
- MMA in conditioned medium ([4]; cblC patients, after 7 days wash-off period without supplemental cobalamin): 0.185 μmol/mg protein
- K, concentration-dependent reaction rate (formation from aquacobalamin) [5]: 39.71 M⁻¹ s⁻¹
- Effect of binding to human wild type CblC on configuration (human wild type CblC): induces their base-off configuration
- Product of the reaction ([6]; cobalamin bound to human CblC, in the presence of GSH): H2OCbl^+
- Half-life of beta-axial ligand removal, Wild type CblC ([6]; human, pH 7.6): <0.5 min
- Transport into the cells (cultured fibroblasts; canonical TC transporter and its cellular receptor CD320): transported successfully into the cells
- Cytotoxicity (cultured fibroblasts; under the experimental conditions of the fibroblast cultures): not cytotoxic
- MMA in conditioned medium ([7]; Controls (group value), after 7 days): 0.120 μmol/mg protein
- MMA in conditioned medium ([7]; Controls, after 7 days wash-off period without supplemental cobalamin): 0.121 μmol/mg protein
- MMA in conditioned medium ([7]; HFF control fibroblasts, after 7 days): 0.116 μmol/mg protein
- MMA in conditioned medium ([7]; NHDF control fibroblasts, after 7 days): 0.096 μmol/mg protein
- MMA in conditioned medium ([7]; Wiezel control fibroblasts, after 7 days): 0.148 μmol/mg protein
